According to ChEMBL document CHEMBL1201862, “PubChem BioAssay data set” (2004):
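These data come from cells grown in 96-well plates and exposed to compound for 48 hours at five concentrations. GI50: concentration for 50% inhibition of growth.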 Active and inactive are the calls of the source. Rule as the data show it: active = GI50 up to about 1.1 µM and inactive = higher.

How the values were obtained:
Test in all cases: NCI tumour cell line growth inhibition, 48 h
HOP-62 = test system: HOP-62
MCF7 = test system: MCF7
SK-MEL-2 = test system: SK-MEL-2
MOLT-4 = test system: MOLT-4
MDA-N = test system: MDA-N
DU-145 = test system: DU-145
Hs-578T = test system: Hs-578T
OVCAR-8 = test system: OVCAR-8
UACC-62 = test system: UACC-62
OVCAR-3 = test system: OVCAR-3
HCT-116 = test system: HCT-116
UO-31 = test system: UO-31
SNB-75 = test system: SNB-75
SN12C = test system: SN12C
BT-549 = test system: BT-549
K562 = test system: K562
MDA-MB-435 = test system: MDA-MB-435
SK-MEL-28 = test system: SK-MEL-28
SF-539 = test system: SF-539

SMILES	GI50 (HOP-62)	GI50 (MCF7)	GI50 (SK-MEL-2)	GI50 (MOLT-4)	GI50 (MDA-N)	GI50 (DU-145)	GI50 (Hs-578T)	GI50 (OVCAR-8)	GI50 (UACC-62)	GI50 (OVCAR-3)	GI50 (HCT-116)	GI50 (UO-31)	GI50 (SNB-75)	GI50 (SN12C)	GI50 (BT-549)	GI50 (K562)	GI50 (MDA-MB-435)	GI50 (SK-MEL-28)	GI50 (SF-539)
C=C1C2C[C@@H]3O[C@H]4C[C@H]5O[C@@]6(C[C@@H]7O[C@]8(C[C@H](C)[C@@H]9O[C@@H]%10CC(CO)O[C@@H]%10C[C@@H]9O8)C[C@H](C)[C@@H]7O6)C[C@H]5O[C@H]4[C@H](C)[C@H]3OC(=O)C[C@H]3CC[C@@H]4OC5[C@H]6O[C@]7(CC[C@H]8CC(=C)[C@H](CC[C@@H](C[C@H]1C)O2)O8)CC6O[C@@H]5[C@@H](O7)[C@H]4O3 (some centres undefined)	< 0.0001 µM (active)	< 0.0001 µM (active)	< 0.0001 µM (active)	< 0.0001 µM (active)	< 0.0001 µM (active)	< 0.0001 µM (active)	< 0.0001 µM (active)	< 0.0001 µM (active)	< 0.0001 µM (active)	< 0.0001 µM (active)	< 0.0001 µM (active)	< 0.0001 µM (active)	< 0.0001 µM (active)	< 0.0001 µM (active)	< 0.0001 µM (active)	< 0.0001 µM (active)	< 0.0001 µM (active)		
CCN(CC)CCC(=O)/C=C/c1ccccc1	20.3 µM (inactive)	2.48 µM (inactive)	23.3 µM (inactive)	6.3 µM (inactive)	13.3 µM (inactive)	22.5 µM (inactive)	14 µM (inactive)	19 µM (inactive)		3.54 µM (inactive)	7.87 µM (inactive)	13.1 µM (inactive)	13.2 µM (inactive)	15.5 µM (inactive)	6.9 µM (inactive)	3.05 µM (inactive)	11 µM (inactive)	15.2 µM (inactive)	19.9 µM (inactive)
CCN1CC2=C(N=c3s/c(=C\c4ccc(Cl)cc4)c(=O)n3C2c2ccc(Cl)cc2)/C(=C/c2ccc(Cl)cc2)C1 (centres undefined)	14.7 µM (inactive)	> 100 µM (inactive)	26.6 µM (inactive)	64.6 µM (inactive)	> 100 µM (inactive)	> 100 µM (inactive)	25.8 µM (inactive)	> 100 µM (inactive)	32.2 µM (inactive)	> 100 µM (inactive)	44.1 µM (inactive)	> 100 µM (inactive)	2.37 µM (inactive)		26.4 µM (inactive)	> 100 µM (inactive)	> 100 µM (inactive)	> 100 µM (inactive)	
CC(C)(C)OC(=O)NNCC(O)COc1ccccc1 (centres undefined)	> 100 µM (inactive)	> 100 µM (inactive)	> 100 µM (inactive)	> 100 µM (inactive)	> 100 µM (inactive)	> 100 µM (inactive)	> 100 µM (inactive)	> 100 µM (inactive)	> 100 µM (inactive)	> 100 µM (inactive)	> 100 µM (inactive)	> 100 µM (inactive)		> 100 µM (inactive)	> 100 µM (inactive)	> 100 µM (inactive)	> 100 µM (inactive)	> 100 µM (inactive)	> 100 µM (inactive)
C/C=C/[C@@]1(OC(=O)c2ccccc2)C[C@@H]2CCCC[C@@H]21	15.5 µM (inactive)	18.9 µM (inactive)	13.2 µM (inactive)	17.9 µM (inactive)	17.4 µM (inactive)	17.5 µM (inactive)	13.8 µM (inactive)	18.5 µM (inactive)	16.7 µM (inactive)		16 µM (inactive)	11 µM (inactive)	14.2 µM (inactive)	17.5 µM (inactive)	14.9 µM (inactive)	19.8 µM (inactive)		17.9 µM (inactive)	17.5 µM (inactive)
COc1cc(C2SC(=N)Nc3c2c(C)nn3C(=O)Cc2ccccc2)cc(OC)c1OC (centres undefined)	> 100 µM (inactive)	> 100 µM (inactive)		> 100 µM (inactive)	> 100 µM (inactive)	> 100 µM (inactive)	> 100 µM (inactive)	> 100 µM (inactive)	> 100 µM (inactive)		> 100 µM (inactive)	> 100 µM (inactive)	28.4 µM (inactive)	> 100 µM (inactive)	> 100 µM (inactive)	> 100 µM (inactive)	> 100 µM (inactive)	> 100 µM (inactive)	> 100 µM (inactive)
O=C(O)C1C2CCC(O2)C1C(=O)Nc1cccc2cccnc12 (centres undefined)	> 100 µM (inactive)	> 100 µM (inactive)	> 100 µM (inactive)		> 100 µM (inactive)	> 100 µM (inactive)	93.5 µM (inactive)		> 100 µM (inactive)	> 100 µM (inactive)	> 100 µM (inactive)	> 100 µM (inactive)	> 100 µM (inactive)	> 100 µM (inactive)	> 100 µM (inactive)	> 100 µM (inactive)	> 100 µM (inactive)	> 100 µM (inactive)	
CCn1c(CCCc2nc3c(=O)n(C)c(=O)n(C)c3[nH]2)nc2c1c(=O)n(C)c(=O)n2C	> 100 µM (inactive)	> 100 µM (inactive)		> 100 µM (inactive)	> 100 µM (inactive)	> 100 µM (inactive)	> 100 µM (inactive)	> 100 µM (inactive)	> 100 µM (inactive)	> 100 µM (inactive)	> 100 µM (inactive)	> 100 µM (inactive)		46 µM (inactive)	> 100 µM (inactive)	75.7 µM (inactive)	> 100 µM (inactive)	> 100 µM (inactive)	14.9 µM (inactive)
CC[C@]12C=CCN3CCC4(c5cc(/N=N/c6ccccc6)c(OC)cc5N(C)[C@H]4[C@@](O)(C(=O)OC)[C@@H]1OC(C)=O)[C@@H]32 (some centres undefined)	17.5 µM (inactive)	16.3 µM (inactive)	17.1 µM (inactive)	13.6 µM (inactive)	18.4 µM (inactive)	17.6 µM (inactive)	17.8 µM (inactive)	19.5 µM (inactive)	14.5 µM (inactive)	12.8 µM (inactive)	16.4 µM (inactive)	14.6 µM (inactive)		18.6 µM (inactive)	17.1 µM (inactive)	18.8 µM (inactive)	18.8 µM (inactive)	20.3 µM (inactive)	21 µM (inactive)
C/C(Nc1ccc(F)cc1)=C1/CCOC1=O	> 100 µM (inactive)			24.5 µM (inactive)		> 100 µM (inactive)	> 100 µM (inactive)	17.3 µM (inactive)	0.277 µM (active)	> 100 µM (inactive)	> 100 µM (inactive)	92.3 µM (inactive)	> 100 µM (inactive)	> 100 µM (inactive)	> 100 µM (inactive)	62.8 µM (inactive)	2.92 µM (inactive)	> 100 µM (inactive)	77.3 µM (inactive)
CC(=O)OCC1OC(n2c(C)c(/N=N/c3ccc(C)cc3)c(C)c(C#N)c2=S)C(OC(C)=O)C(OC(C)=O)C1OC(C)=O (centres undefined)	> 100 µM (inactive)	> 100 µM (inactive)		> 100 µM (inactive)	> 100 µM (inactive)	> 100 µM (inactive)	23.5 µM (inactive)		50.2 µM (inactive)	> 100 µM (inactive)	> 100 µM (inactive)	> 100 µM (inactive)	60.4 µM (inactive)	> 100 µM (inactive)	> 100 µM (inactive)	> 100 µM (inactive)	> 100 µM (inactive)	> 100 µM (inactive)	39.3 µM (inactive)
O=S(=O)(c1ccc(Br)cc1)N1CCN(S(=O)(=O)c2ccc(Br)cc2)CC1	> 100 µM (inactive)	> 100 µM (inactive)	> 100 µM (inactive)	1.71 µM (inactive)	> 100 µM (inactive)	> 100 µM (inactive)	> 100 µM (inactive)	> 100 µM (inactive)	> 100 µM (inactive)	> 100 µM (inactive)	> 100 µM (inactive)	> 100 µM (inactive)	> 100 µM (inactive)	> 100 µM (inactive)	> 100 µM (inactive)	5.87 µM (inactive)	> 100 µM (inactive)	> 100 µM (inactive)	
Cc1ccc2nc(N/N=C/c3sccc3C)cc(C)c2c1	29.3 µM (inactive)	25.3 µM (inactive)	> 100 µM (inactive)	> 100 µM (inactive)	> 100 µM (inactive)	> 100 µM (inactive)	83.2 µM (inactive)	> 100 µM (inactive)	> 100 µM (inactive)	> 100 µM (inactive)	42.6 µM (inactive)	> 100 µM (inactive)	38.7 µM (inactive)	> 100 µM (inactive)	> 100 µM (inactive)	> 100 µM (inactive)	> 100 µM (inactive)	> 100 µM (inactive)	
NNc1ncnc2cccc(Cl)c12	> 100 µM (inactive)	> 100 µM (inactive)		> 100 µM (inactive)	> 100 µM (inactive)	> 100 µM (inactive)	> 100 µM (inactive)	> 100 µM (inactive)	> 100 µM (inactive)	> 100 µM (inactive)	> 100 µM (inactive)	> 100 µM (inactive)	> 100 µM (inactive)	> 100 µM (inactive)	> 100 µM (inactive)	> 100 µM (inactive)		> 100 µM (inactive)	> 100 µM (inactive)
COC(=O)C1(Cc2ccccc2)Cc2ccccc2C1O (centres undefined)	> 100 µM (inactive)	> 100 µM (inactive)		39.4 µM (inactive)	> 100 µM (inactive)	> 100 µM (inactive)	55.1 µM (inactive)	> 100 µM (inactive)	> 100 µM (inactive)	> 100 µM (inactive)	> 100 µM (inactive)	62.4 µM (inactive)	87.7 µM (inactive)	> 100 µM (inactive)	> 100 µM (inactive)	> 100 µM (inactive)	> 100 µM (inactive)	> 100 µM (inactive)	> 100 µM (inactive)
